Test results published in ChEMBL document CHEMBL1201862, “PubChem BioAssay data set” (2004).
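Grown in 96-well plates, cells were treated for 48 hours with each compound at five concentrations. Insufficient inhibition: endpoint recorded as highest concentration tested. GI50: concentration for 50% inhibition of growth.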 Calls of active or inactive are those of the source. No stated cut-off is given here; in the data, active = GI50 up to about 1.1 µM and inactive = higher.

Key:
Assay in all cases: NCI-60 cell line screen, 48 h
OVCAR-4 = tested on: OVCAR-4
IGROV-1 = tested on: IGROV-1
SK-MEL-28 = tested on: SK-MEL-28
SN12C = tested on: SN12C
SF-539 = tested on: SF-539
SK-MEL-5 = tested on: SK-MEL-5
CAKI-1 = tested on: CAKI-1
OVCAR-5 = tested on: OVCAR-5
MCF7 = tested on: MCF7
HL-60 = tested on: HL-60
SF-268 = tested on: SF-268
NCI-H23 = tested on: NCI-H23
UACC-257 = tested on: UACC-257
786-0 = tested on: 786-0
KM12 = tested on: KM12
RXF 393 = tested on: RXF 393
SF-295 = tested on: SF-295
K562 = tested on: K562
A549 = tested on: A549
HOP-92 = tested on: HOP-92
SK-MEL-2 = tested on: SK-MEL-2
MDA-N = tested on: MDA-N
COLO 205 = tested on: COLO 205
SW-620 = tested on: SW-620
SR = tested on: SR
SNB-19 = tested on: SNB-19
DU-145 = tested on: DU-145
Hs-578T = tested on: Hs-578T
HCT-116 = tested on: HCT-116
OVCAR-3 = tested on: OVCAR-3
M14 = tested on: M14
MDA-MB-231 = tested on: MDA-MB-231
EKVX = tested on: EKVX
Malme-3M = tested on: Malme-3M
MOLT-4 = tested on: MOLT-4
UACC-62 = tested on: UACC-62
CCRF-CEM = tested on: CCRF-CEM
HCT-15 = tested on: HCT-15
NCI-H522 = tested on: NCI-H522
HT-29 = tested on: HT-29
BT-549 = tested on: BT-549
NCI-H226 = tested on: NCI-H226
RPMI-8226 = tested on: RPMI-8226
HOP-62 = tested on: HOP-62
ACHN = tested on: ACHN
SK-OV-3 = tested on: SK-OV-3
LOX IMVI = tested on: LOX IMVI
A498 = tested on: A498
TK-10 = tested on: TK-10
T47D = tested on: T47D
HCC 2998 = tested on: HCC 2998
OVCAR-8 = tested on: OVCAR-8
SNB-75 = tested on: SNB-75
NCI/ADR-RES = tested on: NCI/ADR-RES
U-251 = tested on: U-251
UO-31 = tested on: UO-31
NCI-H460 = tested on: NCI-H460
MDA-MB-435 = tested on: MDA-MB-435
PC-3 = tested on: PC-3

Measured: GI50

CC(C)C(=O)/C=C/c1ccc(Cl)cc1Cl
12.2 µM: HCT-15
inactive: OVCAR-4 6.75 µM | IGROV-1 14.8 µM | SK-MEL-28 16.5 µM | SN12C 10.7 µM | SF-539 18.4 µM | SK-MEL-5 14.5 µM | CAKI-1 12.2 µM | OVCAR-5 16.9 µM | MCF7 3.62 µM | HL-60 7.05 µM | SF-268 6.93 µM | NCI-H23 13.7 µM | UACC-257 13.3 µM | 786-0 14.2 µM | KM12 4.06 µM | RXF 393 8.79 µM | SF-295 16.9 µM | K562 5.37 µM | A549 14.8 µM | HOP-92 16.8 µM | SK-MEL-2 14.2 µM | MDA-N 2.96 µM | COLO 205 18.5 µM | SW-620 3.1 µM | SR 6.61 µM | SNB-19 15.8 µM | DU-145 14.2 µM | Hs-578T 3.51 µM | HCT-116 2.65 µM | OVCAR-3 4.63 µM | M14 8.28 µM | MDA-MB-231 23.9 µM | EKVX 16.8 µM | Malme-3M 14.8 µM | MOLT-4 8.15 µM | UACC-62 13 µM | CCRF-CEM 5.09 µM | NCI-H522 10.8 µM | HT-29 3.99 µM | BT-549 4.41 µM | NCI-H226 13.2 µM | RPMI-8226 > 100 µM | HOP-62 18.5 µM | ACHN 16.2 µM | SK-OV-3 19.6 µM | LOX IMVI 3.55 µM | A498 17.9 µM | TK-10 14.2 µM | T47D 13 µM | HCC 2998 16.4 µM | OVCAR-8 10.5 µM | SNB-75 14.4 µM | NCI/ADR-RES 20.1 µM | U-251 12.6 µM | UO-31 11.4 µM | NCI-H460 11.3 µM | MDA-MB-435 2.99 µM | PC-3 18.7 µM

COc1cc2ncnc(Nc3cccc(Cl)c3)c2cc1OC [TYRPHOSTIN AG-1478]
inactive: OVCAR-4 18.1 µM | SK-MEL-28 9.38 µM | SN12C 8.91 µM | SF-539 15.9 µM | SK-MEL-5 6.1 µM | OVCAR-5 9.46 µM | MCF7 21.5 µM | HL-60 21.8 µM | SF-268 4.67 µM | NCI-H23 14.6 µM | UACC-257 7.57 µM | 786-0 6.28 µM | KM12 5.73 µM | RXF 393 9.42 µM | SF-295 9.48 µM | K562 8.71 µM | A549 10.6 µM | HOP-92 5.19 µM | SK-MEL-2 9.27 µM | MDA-N 15.1 µM | COLO 205 17.9 µM | SW-620 16.1 µM | SR 7.33 µM | SNB-19 21 µM | DU-145 1.89 µM | Hs-578T 3.57 µM | HCT-116 17.6 µM | OVCAR-3 3.05 µM | M14 7.16 µM | MDA-MB-231 14.2 µM | Malme-3M 6.28 µM | MOLT-4 16.4 µM | UACC-62 7.14 µM | CCRF-CEM 3.82 µM | HT-29 9.38 µM | BT-549 1.42 µM | NCI-H226 2.4 µM | RPMI-8226 8.85 µM | HOP-62 20.8 µM | LOX IMVI 11.5 µM | A498 2.54 µM | T47D 9.55 µM | HCC 2998 13.6 µM | OVCAR-8 3.66 µM | SNB-75 2.57 µM | NCI/ADR-RES 3.63 µM | U-251 15.2 µM | UO-31 4.47 µM | NCI-H460 13.4 µM | MDA-MB-435 11.9 µM | PC-3 12.6 µM
active: IGROV-1 0.0736 µM | CAKI-1 0.248 µM | EKVX 0.392 µM | NCI-H522 0.356 µM | ACHN 0.0446 µM | SK-OV-3 0.472 µM | TK-10 0.173 µM
9.25 µM: HCT-15

CC[C@@H]([C@H](O)c1ccccc1Cl)[N+](=O)[O-]
active: SR 0.324 µM
1.33 µM: HCT-15
inactive: OVCAR-4 > 100 µM | IGROV-1 > 100 µM | SK-MEL-28 > 100 µM | SN12C > 100 µM | SF-539 59 µM | SK-MEL-5 > 100 µM | CAKI-1 > 100 µM | OVCAR-5 > 100 µM | MCF7 16.4 µM | HL-60 7.82 µM | SF-268 > 100 µM | NCI-H23 > 100 µM | UACC-257 > 100 µM | 786-0 > 100 µM | KM12 > 100 µM | RXF 393 > 100 µM | SF-295 > 100 µM | A549 > 100 µM | HOP-92 > 100 µM | SK-MEL-2 > 100 µM | MDA-N 2.35 µM | COLO 205 > 100 µM | SW-620 42.9 µM | SNB-19 > 100 µM | DU-145 > 100 µM | Hs-578T > 100 µM | HCT-116 4.25 µM | OVCAR-3 > 100 µM | M14 > 100 µM | MDA-MB-231 > 100 µM | EKVX > 100 µM | UACC-62 > 100 µM | CCRF-CEM 19.2 µM | NCI-H522 90.4 µM | HT-29 > 100 µM | BT-549 > 100 µM | NCI-H226 > 100 µM | RPMI-8226 91.8 µM | HOP-62 54.6 µM | ACHN > 100 µM | SK-OV-3 > 100 µM | LOX IMVI > 100 µM | A498 > 100 µM | TK-10 > 100 µM | T47D > 100 µM | HCC 2998 > 100 µM | OVCAR-8 > 100 µM | SNB-75 65.6 µM | NCI/ADR-RES > 100 µM | U-251 > 100 µM | UO-31 > 100 µM | NCI-H460 > 100 µM | MDA-MB-435 25.8 µM | PC-3 61.4 µM
